The record followed here is patent US20150366831A1, “THROMBORESISTANT/BACTERICIDAL S-NITROSO-N-[…] (SNAP)-DOPED NITRIC OXIDE RELEASE POLYMERS WITH ENHANCED STABILITY” (THE REGENTS OF THE UNIVERSITY OF MICHIGNA, priority 2013, published 2015).

The data set can be described thus: SNAP/E2As dry storage stability study. The class given is physicochemical. To be noted: SNAP doped in E2As polymer. The procedure: The stability of SNAP doped in the E2As polymer during dry storage was also evaluated. SNAP incorporated in E2As can potentially undergo thermal or photochemical decomposition during storage, thus limiting the available NO release capacity at the time of use. Therefore, 10 wt % SNAP/E2As films were stored with desiccant in the freezer in the dark, dry in the dark or in ambient light with desiccant at room temperature, and dry in the dark with desiccant at 37° C. and 50° C. These stability studies were conducted in a similar manner as the cumulative NO release experiments, where films were dissolved in DMAc to determine the amount of SNAP remaining in the polymer at various time points (as described herein). […] After 2 months, for example, the 10 wt % SNAP films stored in the freezer (−20° C.) in the dark maintain about 96% of the initial SNAP species, compared to 89% for films stored at room temperature and 82% for films stored at 37° C. (see FIG. 8). […]
SNAP/E2As films (consisting of 10 wt % SNAP) were placed under the following conditions in vials with desiccant: room temperature with ambient light, room temperature in dark, 37° C. in dark, and in the freezer (−20° C.) in dark. At various time points over a 4 month period, films were dissolved in DMAc, and the UV-Vis spectra was recorded to determine the % SNAP remaining in the film, as compared to the initial 10 wt % SNAP.

Take `CC(=O)N[C@H](C(=O)O)C(C)(C)SN=O` (racemic) [SNAP, S-nitroso-N-acetylpenicillamine]: the “Time for which SNAP is stable in the Elast-Eon E2As polymer” value is recorded as “at least 4 months”.
